Our source for the Ki, IC50 and EC50 values is ChEMBL document CHEMBL1136098, “Semisynthetic preparation of amentoflavone: A negative modulator at GABA(A) receptors” (Bioorg Med Chem Lett, 2003).

The target in test [1] is 5-hydroxytryptamine receptor 1D (Sus scrofa, UniProt P79400). Nature of the test: Binding affinity (in vitro) against 5-hydroxytryptamine 1D receptor alpha using radio-ligand binding assay.
Test [2] has as its target GABA-A receptor; anion channel. Nature of the test: Inhibition of [3H]flunitrazepam binding to rat brain GABA-A benzodiazepine receptor.
Test [3] has as its target GABA-A receptor; anion channel. Nature of the test: Binding affinity for human cloned GABA-A benzodiazepine receptor. The format is protein-complex assay.
Test [4] concerns the target T1, GABA-A receptor; alpha-1/beta-2/gamma-2 (Homo sapiens, UniProt P14867+P18507+P47870).
T1 sequence (P14867 whole entry): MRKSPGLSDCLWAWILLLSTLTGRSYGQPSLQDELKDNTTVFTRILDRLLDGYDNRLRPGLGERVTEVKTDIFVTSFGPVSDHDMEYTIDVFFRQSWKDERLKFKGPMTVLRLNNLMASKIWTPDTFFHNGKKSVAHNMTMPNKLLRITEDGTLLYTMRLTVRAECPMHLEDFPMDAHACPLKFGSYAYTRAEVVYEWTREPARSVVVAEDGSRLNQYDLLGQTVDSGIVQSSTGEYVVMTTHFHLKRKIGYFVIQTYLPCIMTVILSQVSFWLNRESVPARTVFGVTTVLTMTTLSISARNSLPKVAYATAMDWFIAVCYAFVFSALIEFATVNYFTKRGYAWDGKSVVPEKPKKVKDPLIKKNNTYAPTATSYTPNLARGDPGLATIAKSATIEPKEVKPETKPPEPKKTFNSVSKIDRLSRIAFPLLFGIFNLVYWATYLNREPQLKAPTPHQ
T1 sequence (P47870 whole entry): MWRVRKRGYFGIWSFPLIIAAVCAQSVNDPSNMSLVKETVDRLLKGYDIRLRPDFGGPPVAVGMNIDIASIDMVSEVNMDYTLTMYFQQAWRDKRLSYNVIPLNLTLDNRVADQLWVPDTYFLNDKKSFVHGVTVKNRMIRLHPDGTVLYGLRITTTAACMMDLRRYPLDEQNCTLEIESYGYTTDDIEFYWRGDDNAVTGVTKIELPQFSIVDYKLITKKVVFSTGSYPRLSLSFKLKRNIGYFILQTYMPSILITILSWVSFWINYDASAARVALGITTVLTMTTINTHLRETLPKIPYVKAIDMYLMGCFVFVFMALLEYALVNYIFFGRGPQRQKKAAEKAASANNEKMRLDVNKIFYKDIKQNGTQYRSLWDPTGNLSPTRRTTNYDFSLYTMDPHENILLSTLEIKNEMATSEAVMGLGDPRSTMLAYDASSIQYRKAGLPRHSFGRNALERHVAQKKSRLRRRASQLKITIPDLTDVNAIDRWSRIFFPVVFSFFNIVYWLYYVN
T1 sequence (P18507 whole entry): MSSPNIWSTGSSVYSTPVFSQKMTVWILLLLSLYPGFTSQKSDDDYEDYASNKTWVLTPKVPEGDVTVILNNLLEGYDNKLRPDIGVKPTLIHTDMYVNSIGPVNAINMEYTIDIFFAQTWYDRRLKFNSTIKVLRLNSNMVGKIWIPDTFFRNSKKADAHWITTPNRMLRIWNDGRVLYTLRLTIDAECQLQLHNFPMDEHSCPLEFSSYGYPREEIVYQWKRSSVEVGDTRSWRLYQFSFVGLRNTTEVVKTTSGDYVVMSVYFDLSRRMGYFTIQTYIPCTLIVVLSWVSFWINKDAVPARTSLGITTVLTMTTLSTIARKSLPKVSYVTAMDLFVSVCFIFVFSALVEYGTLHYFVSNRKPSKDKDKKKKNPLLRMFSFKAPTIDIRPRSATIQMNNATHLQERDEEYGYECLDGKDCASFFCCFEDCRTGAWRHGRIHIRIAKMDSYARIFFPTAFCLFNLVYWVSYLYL
Nature of the test: Effective concentration against human recombinant GABA-A receptor alpha-1-beta-2-gamma-2 subunits expressed in Xenopus oocytes. The class given is cell-based, Oocyte.

The next test has as its target D(3) dopamine receptor (Homo sapiens, UniProt P35462). Description: Binding affinity (in vitro) against Dopamine receptor D3 using radio-ligand binding assay. Further details: species or system Sus scrofa.
Test [5] addresses GABA-A receptor; anion channel. Nature of the test: Binding affinity for GABA-A benzodiazepine receptor. The class given is protein-complex assay.
Test [6] addresses Delta-type opioid receptor (Sus scrofa, UniProt P79291). Description: Binding affinity (in vitro) against Opioid receptor delta 1 using radio-ligand binding assay.

pEC50, pIC50, pKi: −log10 of the molar value.

Sequence of D(3) dopamine receptor (P35462 whole entry): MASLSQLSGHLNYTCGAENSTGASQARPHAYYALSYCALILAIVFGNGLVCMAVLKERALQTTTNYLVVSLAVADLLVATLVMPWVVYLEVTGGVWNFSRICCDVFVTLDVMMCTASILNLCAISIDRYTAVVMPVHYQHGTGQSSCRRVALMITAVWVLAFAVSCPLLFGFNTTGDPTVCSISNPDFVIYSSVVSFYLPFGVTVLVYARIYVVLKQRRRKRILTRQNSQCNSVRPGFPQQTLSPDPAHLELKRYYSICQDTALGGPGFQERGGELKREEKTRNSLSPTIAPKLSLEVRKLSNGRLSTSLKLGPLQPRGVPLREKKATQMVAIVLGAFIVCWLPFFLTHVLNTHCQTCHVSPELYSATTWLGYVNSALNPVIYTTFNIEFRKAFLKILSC
Sequence of Delta-type opioid receptor (P79291 whole entry): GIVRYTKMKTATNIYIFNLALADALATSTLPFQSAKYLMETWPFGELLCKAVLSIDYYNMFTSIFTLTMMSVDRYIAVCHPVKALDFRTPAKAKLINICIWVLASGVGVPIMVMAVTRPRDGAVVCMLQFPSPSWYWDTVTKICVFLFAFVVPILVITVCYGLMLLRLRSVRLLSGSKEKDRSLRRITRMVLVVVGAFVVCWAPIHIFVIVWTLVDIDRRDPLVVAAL
Sequence of 5-hydroxytryptamine receptor 1D (P79400 whole entry): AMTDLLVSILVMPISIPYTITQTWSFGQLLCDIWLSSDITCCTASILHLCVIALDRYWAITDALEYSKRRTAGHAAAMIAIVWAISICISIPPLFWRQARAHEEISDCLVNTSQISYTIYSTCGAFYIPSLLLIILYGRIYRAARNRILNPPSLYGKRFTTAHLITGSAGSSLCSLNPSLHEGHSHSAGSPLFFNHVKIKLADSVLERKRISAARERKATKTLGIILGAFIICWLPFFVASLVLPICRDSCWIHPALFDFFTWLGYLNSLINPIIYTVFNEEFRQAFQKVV

For the compound `O=c1cc(-c2ccc(O)c(-c3c(O)cc(O)c4c(=O)cc(-c5ccc(O)cc5)oc34)c2)oc2cc(O)cc(O)c12` [AMENTOFLAVONE], the pKi is 5.39 in test [1]; 8.22 in test [3]; 5.91 at D(3) dopamine receptor; 8.22 in test [5]; 7.44 in test [6]. The pIC50 in test [2] is 7.83. Besides, the negative logarithm of the EC50 (pEC50) in test [4] is 5.44.

In general, pKi refers to the negative decadic logarithm of the Ki, by convention in mol/L. Higher therefore signals a low Ki. What is called pIC50 is the negative decadic logarithm of the IC50, by convention in mol/L. A low value points to a large IC50. As usually defined, the pEC50 is −log10 of the EC50, conventionally taken in molar units.
